Data set [1] concerns A-375. Nature of the data set: Cytotoxicity against human A375 cells harboring BRAF V600E mutant after 72 hrs by CellTiter-Glo assay. It counts as functional, cell-based. The settings on record: A-375, 72 h. In general terms: In ATP-based viability assays light output follows the ATP content of the culture.
For data set [2], the target named is T1, Serine/threonine-protein kinase B-raf (Homo sapiens, UniProt P15056, V600E). Description: Inhibition of BRAF V600E mutant in human A375 cells assessed as reduction in ERK phosphorylation. It counts as cell-based.
In data set [3] the target is T1, Serine/threonine-protein kinase B-raf. Nature of the data set: Inhibition of BRAF V600E mutant (unknown origin).
In a further data set the test system is WM 266-4. Nature of the data set: Cytotoxicity in human WM266.4 cells after 72 hrs by CellTiter-Glo assay. It counts as functional, cell-based. The settings on record: WM 266-4, 72 h.
The next data set has as its system SK-MEL-30. Description: cells. As to conditions: Homo sapiens, SK-MEL-30, 48 h.
Data set [4] deals with T1, Serine/threonine-protein kinase B-raf.
The target of data set [5] is T2, RAF proto-oncogene serine/threonine-protein kinase (Homo sapiens, UniProt P04049). Nature of the data set: Inhibition of CRAF (unknown origin).
Data set [6] deals with T3, Serine/threonine-protein kinase A-Raf (Homo sapiens, UniProt P10398).
T3 sequence (P10398 whole entry): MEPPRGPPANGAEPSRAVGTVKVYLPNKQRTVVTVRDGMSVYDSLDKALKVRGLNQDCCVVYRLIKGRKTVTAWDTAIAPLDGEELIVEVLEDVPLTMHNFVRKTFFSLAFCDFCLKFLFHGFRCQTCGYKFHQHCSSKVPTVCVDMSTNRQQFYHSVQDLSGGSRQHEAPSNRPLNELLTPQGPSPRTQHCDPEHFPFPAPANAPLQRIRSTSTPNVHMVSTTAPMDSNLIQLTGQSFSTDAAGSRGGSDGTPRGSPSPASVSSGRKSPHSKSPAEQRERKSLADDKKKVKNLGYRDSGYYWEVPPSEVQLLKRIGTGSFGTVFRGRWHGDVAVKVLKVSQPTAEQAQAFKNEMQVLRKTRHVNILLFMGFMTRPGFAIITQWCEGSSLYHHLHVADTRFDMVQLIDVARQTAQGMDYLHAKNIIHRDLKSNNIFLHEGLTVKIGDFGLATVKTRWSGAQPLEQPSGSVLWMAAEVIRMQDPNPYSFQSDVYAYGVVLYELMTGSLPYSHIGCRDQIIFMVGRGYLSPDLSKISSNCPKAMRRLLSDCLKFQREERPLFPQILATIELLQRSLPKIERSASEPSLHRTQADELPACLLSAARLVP
Nature of the data set: Inhibition of ARAF (unknown origin).

In data set [7] the target is T1, Serine/threonine-protein kinase B-raf. The source holds these as a separate data set.
For data set [8], the target named is T4, Serine/threonine-protein kinase B-raf (Homo sapiens, UniProt P15056).
For data set [9], the system named is A-375. Description: Cytotoxicity against human A375 cells harboring BRAF V600E mutant. It counts as functional, cell-based.
The target in data set [10] is T1, Serine/threonine-protein kinase B-raf. Description: biochemical.
The target is the same in data set [11]. This is another data set of the same source.
The next data set relates to SK-MEL-28. Nature of the data set: Cytotoxicity against human SK-MEL-28 cells after 72 hrs by CellTiter-Glo assay. It counts as functional, cell-based. The settings on record: SK-MEL-28, 72 h.
The target of data set [12] is T2, RAF proto-oncogene serine/threonine-protein kinase. Nature of the data set: Inhibition of CRAF (unknown origin) by Z'-LYTE assay.
Data set [13] addresses T1, Serine/threonine-protein kinase B-raf. Nature of the data set: Inhibition of BRAF V600E mutant (unknown origin) by Z'-LYTE assay.
The target in data set [14] is T4, Serine/threonine-protein kinase B-raf. Description: Inhibition of wild type BRAF (unknown origin) by Z'-LYTE assay.
In data set [15] the target is T1, Serine/threonine-protein kinase B-raf. Nature of the data set: Inhibition of BRAF V600E mutant in human A375 cells assessed as reduction in ERK phosphorylation after 2 hrs by ELISA. It counts as cell-based. A general note: An ELISA detects its analyte on a solid surface through an enzyme-linked reagent.
Data set [16] has as its system A-375. Nature of the data set: Cytotoxicity against human A375 cells harboring BRAF V600E mutant after 72 hrs by alamar blue assay. It counts as functional, cell-based. As to conditions: A-375, 72 h. In general terms: Resazurin is reduced to fluorescent resorufin, in cell work by metabolically active cells.
The nature of data set [17]: Tmax in human. The settings on record: in vivo. It counts as ADME, organism-based.
Data set [18] can be described thus: Cytotoxicity against human PLGA cells harboring BRAF V600E mutant after 96 hrs by CellTiter-Glo assay. It counts as functional, cell-based.
The nature of data set [19]: Cytotoxicity against human HCC364 cells harboring p61 V600E mutant. It counts as functional, cell-based.
Data set [20] in a line: Half life in human. It counts as ADME, organism-based. The settings on record: in vivo.
Data set [21] has as its system A-375. Nature of the data set: Cytotoxicity against human A375 cells harboring BRAF V600E mutant after 96 hrs by CellTiter-Glo assay. As to conditions: A-375, 96 h. It counts as functional, cell-based.
Another data set concerns SK-MEL19. Nature of the data set: Cytotoxicity against human SK-MEL-19 cells harboring BRAF mutant after 3 days. It counts as functional, cell-based. The settings on record: SK-MEL19, 72 h.
The target in data set [22] is T4, Serine/threonine-protein kinase B-raf. Nature of the data set: Inhibition of BRAF in human Jurkat T cells assessed as reduction in ERK phosphorylation. It counts as cell-based.
The subject of data set [23] is A-375. Nature of the data set: Cytotoxicity against human A375 cells harboring BRAF V600E mutant after 48 hrs by CellTiter-Glo assay. The settings on record: A-375, 48 h. It counts as functional, cell-based.

The structures appear in SMILES notation.

As a reminder, the IC50 is the concentration that inhibits the measured activity by half. Broadly, the Tmax is the time at which the peak concentration occurs. In general, half-life refers to the time needed for the level to fall by half in the phase considered. Low values mean fast loss, high ones slow loss. Broadly, the EC50 is the concentration that produces a half-maximal response.

T1 sequence (P15056 2-766 V600E limits assumed): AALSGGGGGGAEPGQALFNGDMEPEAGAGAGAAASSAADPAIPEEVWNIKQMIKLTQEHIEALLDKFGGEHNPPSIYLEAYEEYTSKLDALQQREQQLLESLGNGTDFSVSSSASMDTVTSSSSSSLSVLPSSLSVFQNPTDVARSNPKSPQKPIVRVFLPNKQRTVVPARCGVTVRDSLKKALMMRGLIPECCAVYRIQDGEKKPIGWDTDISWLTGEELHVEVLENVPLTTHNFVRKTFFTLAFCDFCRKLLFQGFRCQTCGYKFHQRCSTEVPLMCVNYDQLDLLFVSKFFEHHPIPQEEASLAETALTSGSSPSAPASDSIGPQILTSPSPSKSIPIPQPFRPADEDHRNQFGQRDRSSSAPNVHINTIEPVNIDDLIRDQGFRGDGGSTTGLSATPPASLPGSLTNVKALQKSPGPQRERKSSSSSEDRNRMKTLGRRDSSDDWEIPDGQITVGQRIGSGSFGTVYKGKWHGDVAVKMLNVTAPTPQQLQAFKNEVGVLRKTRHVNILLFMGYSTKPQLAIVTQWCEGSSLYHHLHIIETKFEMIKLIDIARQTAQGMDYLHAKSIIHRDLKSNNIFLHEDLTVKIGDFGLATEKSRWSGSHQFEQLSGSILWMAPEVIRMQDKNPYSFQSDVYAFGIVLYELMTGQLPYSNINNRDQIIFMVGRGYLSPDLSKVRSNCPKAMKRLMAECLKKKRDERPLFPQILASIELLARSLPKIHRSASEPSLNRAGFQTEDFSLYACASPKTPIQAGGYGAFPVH
T4 sequence (P15056 whole entry): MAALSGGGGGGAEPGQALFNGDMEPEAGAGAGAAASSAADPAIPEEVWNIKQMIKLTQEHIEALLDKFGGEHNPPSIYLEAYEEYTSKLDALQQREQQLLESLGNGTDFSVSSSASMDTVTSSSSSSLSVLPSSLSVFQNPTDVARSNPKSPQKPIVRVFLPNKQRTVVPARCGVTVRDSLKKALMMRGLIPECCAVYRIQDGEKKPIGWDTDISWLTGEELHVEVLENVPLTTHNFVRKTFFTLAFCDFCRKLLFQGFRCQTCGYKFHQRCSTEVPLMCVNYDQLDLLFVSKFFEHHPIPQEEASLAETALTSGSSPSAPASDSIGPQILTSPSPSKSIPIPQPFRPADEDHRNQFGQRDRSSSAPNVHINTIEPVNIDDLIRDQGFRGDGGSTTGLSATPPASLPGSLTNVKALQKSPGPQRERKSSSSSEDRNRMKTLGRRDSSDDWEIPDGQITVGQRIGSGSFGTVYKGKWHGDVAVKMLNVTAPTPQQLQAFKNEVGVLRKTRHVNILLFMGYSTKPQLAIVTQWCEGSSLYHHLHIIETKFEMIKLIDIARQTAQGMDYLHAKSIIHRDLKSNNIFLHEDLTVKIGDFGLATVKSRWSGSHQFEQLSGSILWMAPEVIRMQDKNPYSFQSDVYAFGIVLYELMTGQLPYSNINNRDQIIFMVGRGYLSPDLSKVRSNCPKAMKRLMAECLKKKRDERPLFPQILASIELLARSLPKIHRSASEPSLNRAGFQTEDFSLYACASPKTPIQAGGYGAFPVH
T2 sequence (P04049 whole entry): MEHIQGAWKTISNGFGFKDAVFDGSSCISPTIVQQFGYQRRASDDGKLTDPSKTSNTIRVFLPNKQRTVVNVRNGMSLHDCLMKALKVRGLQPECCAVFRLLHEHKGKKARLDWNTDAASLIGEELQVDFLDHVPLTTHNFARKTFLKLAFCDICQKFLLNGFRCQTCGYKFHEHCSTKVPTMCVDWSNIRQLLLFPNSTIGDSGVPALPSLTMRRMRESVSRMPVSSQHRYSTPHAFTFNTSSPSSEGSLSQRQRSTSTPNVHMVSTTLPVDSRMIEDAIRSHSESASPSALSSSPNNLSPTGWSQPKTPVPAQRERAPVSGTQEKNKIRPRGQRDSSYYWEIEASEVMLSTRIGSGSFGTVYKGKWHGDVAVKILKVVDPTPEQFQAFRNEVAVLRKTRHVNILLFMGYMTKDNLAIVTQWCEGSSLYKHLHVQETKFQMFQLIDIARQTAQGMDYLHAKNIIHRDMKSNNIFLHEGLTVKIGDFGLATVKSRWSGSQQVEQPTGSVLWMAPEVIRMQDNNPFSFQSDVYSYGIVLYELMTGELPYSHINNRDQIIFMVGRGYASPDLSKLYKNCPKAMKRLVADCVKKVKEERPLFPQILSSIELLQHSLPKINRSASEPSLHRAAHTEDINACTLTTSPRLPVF

Take `CC(C)(N)c1cc(C(=O)NC2CCc3ccc(Oc4ccnc5c4CCC(=O)N5)cc3C2)cc(C(F)(F)F)c1` (stereo not given): in the data set with A-375 [1], it took 0.2 µM to reach half-maximal inhibition (IC50).

Regarding `CC(C)(C)c1cc(NC(=O)Nc2ccc(Oc3ccnc4[nH]c(=O)cnc34)cc2F)n(-c2ccccc2)n1`, the IC50 in data set [2] is 0.005 µM; in data set [3] it was 0.04 µM; in the data set on WM 266-4, 0.015 µM.

In turn, `CNC(=O)c1cc(Oc2ccc(NC(=O)Nc3ccc(Cl)c(C(F)(F)F)c3)cc2)ccn1` [SORAFENIB] registered an IC50 in the data set on SK-MEL-30 of 3.9 µM.

Turning to `O=C1CCc2c(Oc3ccc4c(c3)[C@H]3[C@@H](O4)[C@@H]3c3nc4ccc(C(F)(F)F)cc4[nH]3)ccnc2N1`, the IC50 in [4] stood at 0.064 µM; in [5], 0.007 µM; in data set [6] it was 0.0056 µM; with A-375 [1], 0.2 µM; in data set [7], 0.023 µM; in data set [8], 0.032 µM.

For the molecule `CCN(C)S(=O)(=O)Nc1ccc(F)c(C(=O)c2c[nH]c3ncc(-c4cnc(C5CC5)nc4)cc23)c1F`, the 50% inhibitory concentration (IC50) in the data set with A-375 [9] is 0.17 µM; in data set [10], 0.0042 µM; in data set [11], 0.016 µM.

On to `CSc1cc(Oc2ccnc3[nH]c(=O)cnc23)ccc1NC(=O)Nc1cc(C(C)(C)C)nn1-c1ccccc1`, for which the IC50 in data set [2] is 0.005 µM; in data set [3] it was 0.015 µM; in the data set on A-375 [1] it was 0.01 µM.

In the data set on SK-MEL-28, `CC(C)(C)c1nc(-c2cccc(NS(=O)(=O)c3c(F)cccc3F)c2F)c(-c2ccnc(N)n2)s1` [DABRAFENIB] registered a concentration for half-maximal inhibition (IC50) of 0.043 µM.

With `CCCS(=O)(=O)Nc1ccc(F)c(-n2cc(-c3cncnc3)c3nc(N(C)C4CCN(CC)CC4)ccc32)c1F` [XP-102], the half-inhibitory concentration (IC50) in [12] was 0.0006 µM; in [13], 0.0004 µM; in data set [14], 0.0008 µM; in data set [15] it was 0.0005 µM; in the data set on A-375 [16], 0.0009 µM.

Consider `C[C@H](NC(=O)c1ncnc(N)c1Cl)c1ncc(C(=O)Nc2cc(C(F)(F)F)c(Cl)cn2)s1`, for which, in data set [17], the Tmax worked out at 2 h. The same molecule gave an IC50 in data set [18] of 0.248 µM.

Take `O=C(c1c(F)ccc(NS(=O)(=O)N2CC[C@H](F)C2)c1F)c1c[nH]c2ncc(-c3cnc(C4CC4)nc3)cc12`: the IC50 is 0.0038 µM in data set [10], 0.8 µM in data set [19] and 0.0035 µM in [11].

`CNc1ncc2cc(-c3cc(NC(=O)NCCC(C)(C)C)c(F)cc3C)c(C)nc2n1` [LY-3009120] had a half-life in data set [20] of 67 h.

Regarding `CCCS(=O)(=O)Nc1ccc(F)c(C(=O)c2c[nH]c3ncc(Cl)cc23)c1F` [PLX-4720], in the data set with A-375 [1], the midpoint of inhibition, the IC50, lay at 0.5 µM.

`OCCn1cc(-c2ccc3c(c2)CC/C3=N\O)c(-c2ccncc2)n1` showed a half-maximal effective concentration (EC50) in the data set with A-375 [21] of over 0.5 µM.

Regarding `COC(=O)Nc1nc2cc(C3(O)c4ccccc4C(=O)N3c3cc(Cl)ccc3C)ccc2[nH]1` (stereo not given) [XL-281], the half-maximal inhibitory concentration (IC50) is 0.2 µM in the data set with SK-MEL19, 0.006 µM in [3] and 2 µM in data set [22].

In the data set on A-375 [23], `CN(C)CCOc1ccc(-c2nc(-c3ccncc3)c(-c3ccc4c(c3)CC/C4=N\O)[nH]2)cc1` [SB590885] gave an IC50 of 0.37 µM.

(Values after ChEMBL document CHEMBL4190375, “Current Insights of BRAF Inhibitors in Cancer” (J Med Chem, 2018).)
